ChEMBL document CHEMBL4616721, “Nitrogen-Walk Approach to Explore Bioisosteric Replacements in a Series of Potent A2B Adenosine Receptor Antagonists” (J Med Chem, 2020)
pKi: −log10 of the molar value.

Key:
[1] = target: T1, Adenosine receptor A1 (Homo sapiens) (UniProt P30542); experiment: Displacement [3H]DPCPX from human adenosine A1 receptor expressed in CHO cell membranes at 1 uM incubated for 60 mins by scintillation counting method relative to control
T1 sequence (whole entry): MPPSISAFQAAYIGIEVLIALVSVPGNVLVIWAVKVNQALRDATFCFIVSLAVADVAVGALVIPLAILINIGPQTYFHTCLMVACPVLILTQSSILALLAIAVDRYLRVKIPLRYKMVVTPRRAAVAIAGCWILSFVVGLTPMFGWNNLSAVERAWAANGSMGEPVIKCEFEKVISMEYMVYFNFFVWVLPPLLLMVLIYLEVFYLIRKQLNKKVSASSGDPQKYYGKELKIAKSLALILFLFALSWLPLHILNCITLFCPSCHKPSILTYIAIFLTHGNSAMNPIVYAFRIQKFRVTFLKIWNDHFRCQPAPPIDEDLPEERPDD

Adenosine receptor A2b = target: T2, Adenosine receptor A2b (Homo sapiens, UniProt P29275); experiment: Displacement [3H]DPCPX from human adenosine A2B receptor expressed in HEK293 cell membranes incubated for 60 mins by scintillation counting method
T2 sequence (P29275 whole entry): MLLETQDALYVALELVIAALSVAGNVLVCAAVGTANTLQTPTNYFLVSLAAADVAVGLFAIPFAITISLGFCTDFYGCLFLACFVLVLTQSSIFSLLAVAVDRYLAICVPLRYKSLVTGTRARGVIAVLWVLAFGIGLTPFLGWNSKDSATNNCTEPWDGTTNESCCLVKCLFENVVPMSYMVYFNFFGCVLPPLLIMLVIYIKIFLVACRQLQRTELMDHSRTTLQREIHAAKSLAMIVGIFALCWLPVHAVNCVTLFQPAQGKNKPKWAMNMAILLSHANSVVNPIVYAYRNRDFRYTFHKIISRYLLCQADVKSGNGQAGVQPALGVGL

Adenosine receptor A2a = Adenosine receptor A2a (Homo sapiens, UniProt P29274); experiment: Displacement [3H]ZM241385 from adenosine A2A receptor in human HeLa cell membranes at 1 uM incubated for 30 mins by scintillation counting method relative to control
[2] = target: T3, Adenosine receptor A3 (Homo sapiens) (UniProt P0DMS8); experiment: Displacement [3H]NECA from adenosine A3 receptor in human HeLa cell membranes at 1 uM incubated for 180 mins by scintillation counting method relative to control
T3 sequence (whole entry): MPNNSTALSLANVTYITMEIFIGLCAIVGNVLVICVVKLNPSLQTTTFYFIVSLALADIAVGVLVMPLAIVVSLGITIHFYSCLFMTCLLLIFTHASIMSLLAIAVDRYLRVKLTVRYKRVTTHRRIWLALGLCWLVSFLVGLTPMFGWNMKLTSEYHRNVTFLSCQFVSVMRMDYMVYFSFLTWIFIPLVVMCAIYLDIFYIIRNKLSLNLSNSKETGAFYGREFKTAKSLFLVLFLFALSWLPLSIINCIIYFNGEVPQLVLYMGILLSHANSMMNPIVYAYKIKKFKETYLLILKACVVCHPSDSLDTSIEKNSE

Adenosine receptor A2a, sequence (P29274 whole entry): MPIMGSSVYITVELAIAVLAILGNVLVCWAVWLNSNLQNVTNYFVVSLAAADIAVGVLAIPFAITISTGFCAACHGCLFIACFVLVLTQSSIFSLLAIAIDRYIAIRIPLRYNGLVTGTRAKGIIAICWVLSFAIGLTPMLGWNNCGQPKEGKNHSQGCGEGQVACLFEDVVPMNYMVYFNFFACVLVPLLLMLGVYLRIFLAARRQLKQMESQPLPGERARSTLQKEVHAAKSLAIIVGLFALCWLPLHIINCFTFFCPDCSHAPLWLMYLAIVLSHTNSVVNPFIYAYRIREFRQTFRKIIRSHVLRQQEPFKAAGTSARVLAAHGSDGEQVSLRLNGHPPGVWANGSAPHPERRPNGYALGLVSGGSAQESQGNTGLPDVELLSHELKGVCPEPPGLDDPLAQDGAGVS

In the case of `CCOC(=O)C1=C(C)Nc2nc3ccccc3n2C1c1cc[nH]c1` (racemic), the inhibition [1] was 26%, the pKi (Adenosine receptor A2b) was 6.35 and the inhibition (Adenosine receptor A2a) was 7%. For the same compound, the inhibition [2] was 1%.
`CC1=C(C(=O)OC(C)C)C(c2ccc(C)o2)n2c(nc3ccccc32)N1` (racemic) was tested, and the inhibition [1] was 14%, the inhibition (Adenosine receptor A2a) was 3% and the inhibition [2] was 1%.
For `CCOC(=O)C1=C(C)Nc2nc3ccccc3n2C1c1cscn1` (racemic), the inhibition [1] was 1%, the inhibition (Adenosine receptor A2a) was 1% and the inhibition [2] was 2%.
Work on `CCOC(=O)C1=C(C)Nc2nc3ccccc3n2C1c1c[nH]cn1` (racemic) yielded an inhibition [1] of 7%, an inhibition (Adenosine receptor A2a) of 16% and an inhibition [2] of 3%.
With `CC1=C(C(=O)OC(C)C)C(c2cc[nH]c2)n2c(nc3ccccc32)N1` (racemic) the inhibition [1] was 19%, the pKi (Adenosine receptor A2b) was 6.29 and the inhibition (Adenosine receptor A2a) was 1%. For the same compound, the inhibition [2] was 2%.
`CCOC(=O)C1=C(C)Nc2nc3ccccc3n2C1c1ccno1` (racemic) was tested, and the inhibition [1] was 1%, the pKi (Adenosine receptor A2b) was 6.15 and the inhibition (Adenosine receptor A2a) was 1%. It also gave an inhibition [2] of 11%.
In the case of `CCOC(=O)C1=C(C)Nc2nc3ccccc3n2C1c1ccccc1` (racemic), the inhibition [1] was 12%, the inhibition (Adenosine receptor A2a) was 9% and the inhibition [2] was 15%.
Compound `CCOC(=O)C1=C(C)Nc2nc3ccccc3n2C1` has an inhibition [1] of 34%, an inhibition (Adenosine receptor A2a) of 11% and an inhibition [2] of 9%.
`CCOC(=O)C1=C(C)Nc2nc3ccccc3n2C1c1cncs1` (racemic) was tested, and the inhibition [1] was 32%, the pKi (Adenosine receptor A2b) was 6.67 and the inhibition (Adenosine receptor A2a) was 1%. It also gave an inhibition [2] of 1%.
In the case of `CCOC(=O)C1=C(C)Nc2nc3ccccc3n2C1c1cnsc1` (racemic), the inhibition [1] was 20%, the inhibition (Adenosine receptor A2a) was 11% and the inhibition [2] was 14%.
`CC1=C(C(=O)OC(C)C)C(C2CCCC2)n2c(nc3ccccc32)N1` (racemic) showed an inhibition [1] of 14%, an inhibition (Adenosine receptor A2a) of 2% and an inhibition [2] of 23%.
`CCOC(=O)C1=C(C)Nc2nc3ccccc3n2C1c1ccon1` (racemic) was tested, and the inhibition [1] was 2%, the pKi (Adenosine receptor A2b) was 6.10 and the inhibition (Adenosine receptor A2a) was 1%. The inhibition [2] was 3%.
`CC1=C(C(=O)OC(C)C)C(c2ccon2)n2c(nc3ccccc32)N1` (racemic) showed an inhibition [1] of 1%, a pKi (Adenosine receptor A2b) of 6.14 and an inhibition (Adenosine receptor A2a) of 2%. For the same compound, the inhibition [2] was 4%.
`CC1=C(C(=O)OC(C)C)C(c2nccs2)n2c(nc3ccccc32)N1` (racemic) was tested, and the inhibition [1] was 5%, the pKi (Adenosine receptor A2b) was 6.12 and the inhibition (Adenosine receptor A2a) was 4%. It also gave an inhibition [2] of 20%.
`CC1=C(C(=O)OC(C)C)C(c2cncs2)n2c(nc3ccccc32)N1` (racemic) gave an inhibition [1] of 2%, a pKi (Adenosine receptor A2b) of 7.17 and an inhibition (Adenosine receptor A2a) of 3%. For the same compound, the inhibition [2] was 5%.
Work on `CC1=C(C(=O)OC(C)C)C(c2c[nH]cn2)n2c(nc3ccccc32)N1` (racemic) yielded an inhibition [1] of 5%, an inhibition (Adenosine receptor A2a) of 4% and an inhibition [2] of 8%.
With `CC1=C(C(=O)OC(C)C)C(c2cnoc2)n2c(nc3ccccc32)N1` (racemic) the inhibition [1] was 1%, the pKi (Adenosine receptor A2b) was 7.53 and the inhibition (Adenosine receptor A2a) was 2%. For the same compound, the inhibition [2] was 5%.
With `CC1=C(C(=O)OC(C)C)C(c2ccns2)n2c(nc3ccccc32)N1` (racemic) the inhibition [1] was 24%, the pKi (Adenosine receptor A2b) was 6.76 and the inhibition (Adenosine receptor A2a) was 18%. It also gave an inhibition [2] of 4%.
Work on `CC1=C(C(=O)OC(C)C)Cn2c(nc3ccccc32)N1` yielded an inhibition [1] of 31%, an inhibition (Adenosine receptor A2a) of 4% and an inhibition [2] of 13%.
Work on `CC1=C(C(=O)OC(C)C)C(c2ccccc2)n2c(nc3ccccc32)N1` (racemic) yielded an inhibition [1] of 9%, an inhibition (Adenosine receptor A2a) of 3% and an inhibition [2] of 9%.
Work on `CC1=C(C(=O)OC(C)C)C(c2cscn2)n2c(nc3ccccc32)N1` (racemic) yielded an inhibition [1] of 1%, an inhibition (Adenosine receptor A2a) of 3% and an inhibition [2] of 18%.
Compound `CCOC(=O)C1=C(C)Nc2nc3ccccc3n2C1C1CCCC1` (racemic) has an inhibition [1] of 11%, an inhibition (Adenosine receptor A2a) of 10% and an inhibition [2] of 17%.
In the case of `CCOC(=O)C1=C(C)Nc2nc3ccccc3n2C1c1ccc(C)o1` (racemic), the inhibition [1] was 14%, the inhibition (Adenosine receptor A2a) was 1% and the inhibition [2] was 3%.
In the case of `CC1=C(C(=O)OC(C)C)C(c2ncc[nH]2)n2c(nc3ccccc32)N1` (racemic), the inhibition [1] was 2%, the inhibition (Adenosine receptor A2a) was 4% and the inhibition [2] was 2%.
